Several values for one entry are separate records, joined by “and”; a condition that tells them apart may be missing. Equal values may be shown once.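 Tested at 5 concentrations; 48 h exposure; 96-well plates; endpoints linearly interpolated, else capped at highest concentration. The concentration for 50% growth inhibition is given as GI50. Definition used: TGI = concentration required for complete inhibition of growth.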
Key:
Assay in all cases: NCI tumour cell line growth inhibition, 48 h
[1] = test system: SNB-78 CNS
[2] = test system: RXF-631 renal
[3] = test system: DMS 114 small cell lung
[4] = test system: DMS 273 small cell lung
[5] = test system: HOP-18 NSCLC
[6] = test system: XF 498 CNS
[7] = test system: MCF7 breast
[8] = test system: MDA-N
[9] = test system: P388/ADR leukemia
[10] = test system: BT-549 breast

| Structure (SMILES) | TGI [1] [µM] | TGI [2] [µM] | TGI [3] | TGI [4] [µM] | TGI [5] | TGI [6] | GI50 [1] [µM] | GI50 [7] [µM] | TGI [7] | TGI [8] | TGI [9] [µM] | GI50 [10] | GI50 [2] [µM] | GI50 [3] [µM] |
| --- | --- | --- | --- | --- | --- | --- | --- | --- | --- | --- | --- | --- | --- | --- |
| Cc1cc(C)c(C(=O)c2no[n+]([O-])c2C(=O)c2c(C)cc(C)c(Br)c2C)c(C)c1Br | 70.8 | 35.7 | 23.4 µM | 45.1 | – | – | – | – | – | – | – | – | – | – |
| CN1CC[C@]2(C)c3ccc(O)cc3CC3CCCC1C32C (stereo partly specified) | > 100 | > 100 | > 100 µM | – | > 100 µM | > 100 µM | – | – | – | – | – | – | – | – |
| C/C=C1\NC(=O)[C@H]2CSSCCC=C[C@H](CC(=O)N[C@H](C(C)C)C(=O)N2)OC(=O)[C@H](C(C)C)NC1=O | – | – | 0.00885 µM | 0.0102 | 0.054 µM and 0.0719 µM | 0.0155 µM and 0.0624 µM | 0.0123 | < 0.01 | 0.0148 µM and 0.00981 µM and 0.0352 µM | 0.0176 µM and < 0.0319 µM | 0.125 | < 10 nM and 0.0646 nM and < 11.1 nM | – | – |
| CC[C@]1(O)C(=O)OCc2c1cc1n(c2=O)Cc2cc3c(N)cccc3nc2-1 | – | > 100 | > 100 µM | > 100 | > 100 µM | > 100 µM | – | – | – | – | – | – | – | – |
| C/C=C/C=C/C=C/C=C/C(=O)O | > 100 | > 100 | > 100 µM | > 100 | > 100 µM | – | – | – | – | – | – | – | – | – |
| Cc1ccccc1C1=C(C(=O)Nc2ccc(Cl)c(Cl)c2)NC(=S)NC1N (stereo unspecified) | > 100 | > 100 | > 100 µM | > 100 | > 100 µM | > 100 µM | – | – | – | – | – | – | – | – |
| CCOP(=O)(OCC)OC(C#N)c1ccc(-c2ccccc2)cc1 (stereo unspecified) | > 100 | – | 29.6 µM | 27.5 | 98.2 µM | 50.1 µM | – | – | – | – | – | – | – | – |
| COC1C2C=CC(C2)[C@H]1[N+](=O)[O-] (stereo partly specified) | > 100 | > 100 | > 100 µM | > 100 | – | – | – | – | – | – | – | – | – | – |
| CC1=C(C(=O)Nc2cccc(Cl)c2)C(c2ccccc2F)C(C(=O)Nc2cccc(Cl)c2)=C(C)N1 | 60.9 | 22.6 | 30.6 µM | 26.4 | – | – | – | – | – | – | – | – | – | – |
| CN(C)/N=C(/c1nc2ccc(Cl)cc2[nH]c1=O)C(O)c1ccc(C(O)/C(=N\N(C)C)c2nc3ccc(Cl)cc3[nH]c2=O)cc1 (stereo unspecified) | – | > 100 | > 100 µM | – | – | – | – | – | – | – | – | – | – | – |
| COC(=O)[C@]12CCC(C)[C@H](C)[C@H]1C1=CCC3[C@@]4(C)CC[C@H](OC(C)=O)C(C)(C)C4CC[C@@]3(C)C1(C)C(O)C2 (stereo partly specified) | > 100 | – | > 100 µM | > 100 | > 100 µM | > 100 µM | – | – | – | – | – | – | – | – |
| CCCCN(CCCC)c1c([N+](=O)[O-])c(=O)nc2ccccn12 | > 100 | 79.8 | 49.6 µM | – | – | 79.6 µM | – | – | – | – | – | – | – | – |
| COc1ccc(/C=C2\CCCC(C(NO)c3ccc(OC)cc3)C2=NO)cc1 (stereo unspecified) | > 100 | > 100 | > 100 µM | > 100 | > 100 µM | – | – | – | – | – | – | – | – | – |
| O=[N+]([O-])c1cnn(C2=CNc3ccccc3N=C2)c1 | > 100 | > 100 | – | > 100 | > 100 µM | > 100 µM | – | – | – | – | – | – | – | – |
| COC(=O)C(CC(=O)Nc1ccc(C)cc1)C(=O)C(=O)Nc1ccccc1C(C)C (stereo unspecified) | > 100 | – | > 100 µM | > 100 | > 100 µM | > 100 µM | – | – | – | – | – | – | – | – |
| O=C(c1ccncc1)n1nc(-c2ccccc2)c(N=Nc2ccccc2[N+](=O)[O-])c1-c1ccccc1 | > 100 | > 100 | > 100 µM | > 100 | – | > 100 µM | – | – | – | – | – | – | – | – |
| COc1ccc(/C=C\c2cc(OC)c(O[Si](C)(C)C(C)(C)C)c(OC)c2)cc1 | – | > 100 | 91.4 µM | > 100 | – | 49.5 µM | – | – | – | – | – | – | – | – |
| CCC1=NC(CO)[C@H](c2ccccc2)O1 (stereo partly specified) | > 100 | – | > 100 µM | > 100 | > 100 µM | > 100 µM | – | – | – | – | – | – | – | – |
| CC(=O)NC(CCCCNC(=O)NCCCl)C(=O)NCc1ccccc1 (stereo unspecified) | – | > 100 | > 100 µM | > 100 | > 100 µM | > 100 µM | – | – | – | – | – | – | – | – |
| COC(=O)c1ccccc1NC(=O)C(=O)NNC(=O)c1ccncc1 | – | > 100 | > 100 µM | > 100 | > 100 µM | > 100 µM | – | – | – | – | – | – | – | – |
| OC1(c2ccccc2)OC(C#Cc2ccccc2)(c2ccccc2)c2ccccc21 (stereo unspecified) | 23.2 | 13.3 | 9.01 µM | 12.1 | – | 19.8 µM | – | – | – | – | – | – | – | – |
| N#CCCN(CCC#N)c1ccc(C(Sc2ccccc2)C(NC(=O)c2cc([N+](=O)[O-])ccc2Cl)C(=O)Sc2ccccc2)cc1 (stereo unspecified) | 34.5 | 4.01 | 7.78 µM and 4.1 µM | 5.15 | 47.3 µM | 21.3 µM | 2.97 | – | – | – | – | – | 1.53 | 1.34 |
| COC(=O)C(=O)C(C(=O)C(=O)Nc1cccc(C(C)=O)c1)c1nc2ccccc2[nH]c1=O (stereo unspecified) | – | > 100 | > 100 µM | > 100 | > 100 µM | – | – | – | – | – | – | – | – | – |
| Cc1ccc(-c2cc(-c3ccco3)c(C#N)c(=O)n2C2OC(OC(=O)c3ccccc3)C(OC(=O)c3ccccc3)C2OC(=O)c2ccccc2)cc1 (stereo unspecified) | > 100 | > 100 | > 100 µM | > 100 | > 100 µM | – | – | – | – | – | – | – | – | – |

— PubChem BioAssay (NCI)
